# Experiments:
# Assay type in all cases: in vivo
# Aedes aegypti [1] = assay: Warm Body assay, mosquito landings on treated warm body; conditions: Aedes aegypti, read-out: Percentage of repellence of mosquitoes Aedes aegypti landing on the warm body
# In short: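 Compounds in ethanol (100 μL, various concentrations) were applied to a sandblasted glass dish covering the warm body (28.3 cm^2), with ethanol as control. Landings were counted automatically from 30 non-blood-fed, sugar-fed Aedes aegypti Rockefeller females aged 5–10 days, under 150 lux.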
# Aedes aegypti [2] = assay: Free flying room assay, spatial repellence with human volunteer
# Description: The goal of this large-scale test is to assess the propensity of stimulus released in the air to protect a human volunteer by limiting the mosquito presence in a protected space and the number of landing/biting. The protocol used to carry the test is following the guidelines indicated in WHO (2013; ISBN 978 92 4 150502 4).
# A group of 50 Aedes aegypti female mosquitoes were introduced in one chamber of 25 m^3 one hour before the test started. The product was applied in the other chamber of 25 m^3 (“treated chamber”) and let evaporate for 30 minutes. The test started when the window separating the two chambers was opened in a tilt-on manner for another 30 minutes. Twenty minutes after the window was opened, a volunteer entered in the “treated chamber” and sat down for 10 minutes, exposing the forearm for the last 3 minutes to determine the probing activity (Protective Efficacy). Then, the connecting window was closed and the number of mosquitoes in each of the chambers was counted (Spatial Repellency). The negative controls were carried out following the same procedure but without the application of the stimulus. Three replicates of each treatment and of the negative control were conducted with three different volunteers.
# Anopheles gambiae = assay: Warm Body assay, mosquito landings on treated warm body
# In short: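 Compounds in ethanol, 100 μL at various concentrations, applied to a sandblasted glass dish (28.3 cm^2) covering a warm body simulating a host. Mosquito landings counted per stimulus against an ethanol-only control to gauge repellence.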
# Aedes aegypti [3] = assay: Arm-in-cage test on human volunteers; conditions: arm treated with 20%, three human volunteers
# Experimental: The controlling effect, repellence & spatial repellence, according to the present invention is also determined according to an arm in the box method adapted from the WHO Guidelines for efficacy testing of mosquito repellents for human skin (WHO/CDS/NTD/WHOPES/2009.4). The readiness of 100 hungry female mosquitoes A. aegypti to a test substance is assessed by comparing the results of an untreated arm to a treated in when inserted into the cage (40×40×40 cm) for 30 seconds (negative control) three times. Further information is provided in the accompanying examples.
# The Arm in the box method was adapted from the WHO Guidelines for efficacy testing of mosquito repellents for human skin (WHO/CDS/NTD/WHOPES/2009.4). The readiness of 100 hungry female mosquitoes A. aegypti to probe is assessed by inserting the untreated arm of human volunteers into the cage (40×40×40cm) for 30 seconds (negative control) in order to determine probing activity. Then, the product is applied onto the skin of the forearm of the human volunteer (1 mL per 600 cm^2) and after 5 minutes, this arm is inserted into the cage and exposed for 3 minutes. The assay take place in temperature (27±2° C.) and humidity (80±10% RH) regulated room on three different human volunteers.
compound,measurement,setting,value
"CCCc1cc(OC)c(OC)c(OC)c1 [compound 1975, 1,2,3-trimethoxy-5-propylbenzene]",pest or weed control at 3.2 µg/mL,Aedes aegypti [1]; 0.0032 mg/mL (Table 1),33%
same,pest or weed control at 7.1 µg/mL,Aedes aegypti [1]; 0.0071 mg/mL (Table 1),10%
same,pest or weed control at 16 µg/mL,Aedes aegypti [1]; 0.016 mg/mL (Table 1),0%
same,pest or weed control at 35.7 µg/mL,Aedes aegypti [1]; 0.0357 mg/mL (Table 1),66%
same,pest or weed control at 53 µg/mL,Aedes aegypti [1]; 0.053 mg/mL (Table 1),30%
same,pest or weed control at 80 µg/mL,Aedes aegypti [1]; 0.08 mg/mL (Table 1),93%
same,pest or weed control at 119 µg/mL,Aedes aegypti [1]; 0.119 mg/mL (Table 1),36%
same,pest or weed control at 178 µg/mL,Aedes aegypti [1]; 0.178 mg/mL (Table 1),83%
same,pest or weed control at 267 µg/mL,Aedes aegypti [1]; 0.267 mg/mL (Table 1),87%
same,pest or weed control at 400 µg/mL,Aedes aegypti [1]; 0.4 mg/mL (Table 1),94%
same,pest or weed control at 598 µg/mL,Aedes aegypti [1]; 0.598 mg/mL (Table 1),99%
same,pest or weed control at 890 µg/mL,Aedes aegypti [1]; 0.89 mg/mL (Table 1),95%
same,pest or weed control at 2000 µg/mL,Aedes aegypti [1]; 2 mg/mL (Table 1),96%
same,pest or weed control at 4470 µg/mL,Aedes aegypti [1]; 4.47 mg/mL (Table 1),98%
same,pest or weed control at 10000 µg/mL,Aedes aegypti [1]; 10 mg/mL (Table 1),96%
same,mosquitoes landed on the volunteer,"Aedes aegypti [2]; in 3 minutes, negative control 60.7±2.5 landings",15.7±3.1
same,Spatial Repellence,"Aedes aegypti [2]; large scale assay, 25 m3 chambers, compound released in the air",43.9 ± 9.1%
same,Protective efficacy,"Aedes aegypti [2]; large scale assay, probing on volunteer forearm, 3 minutes",74.2 ± 4.4%
same,mosquito entered the treated chamber,Aedes aegypti [2]; negative control 82.5±3.7%,46.3±7.5%
same,pest or weed control at 3.2 µg/mL,"Anopheles gambiae; Anopheles gambiae, 0.0032 mg/mL (Table 5), read-out: Percentage of repellence of mosquitoes Anopheles gambiae landing on the warm body",0%
same,pest or weed control at 7.1 µg/mL,"Anopheles gambiae; Anopheles gambiae, 0.0071 mg/mL (Table 5), read-out: Percentage of repellence of mosquitoes Anopheles gambiae landing on the warm body",5%
same,pest or weed control at 16 µg/mL,"Anopheles gambiae; Anopheles gambiae, 0.016 mg/mL (Table 5), read-out: Percentage of repellence of mosquitoes Anopheles gambiae landing on the warm body",78%
same,pest or weed control at 53 µg/mL,"Anopheles gambiae; Anopheles gambiae, 0.053 mg/mL (Table 5), read-out: Percentage of repellence of mosquitoes Anopheles gambiae landing on the warm body",23%
same,pest or weed control at 80 µg/mL,"Anopheles gambiae; Anopheles gambiae, 0.08 mg/mL (Table 5), read-out: Percentage of repellence of mosquitoes Anopheles gambiae landing on the warm body",0%
same,pest or weed control at 400 µg/mL,"Anopheles gambiae; Anopheles gambiae, 0.4 mg/mL (Table 5), read-out: Percentage of repellence of mosquitoes Anopheles gambiae landing on the warm body",94%
same,pest or weed control at 2000 µg/mL,"Anopheles gambiae; Anopheles gambiae, 2 mg/mL (Table 5), read-out: Percentage of repellence of mosquitoes Anopheles gambiae landing on the warm body",95%
same,pest or weed control at 4470 µg/mL,"Anopheles gambiae; Anopheles gambiae, 4.47 mg/mL (Table 5), read-out: Percentage of repellence of mosquitoes Anopheles gambiae landing on the warm body",100%
same,pest or weed control at 10000 µg/mL,"Anopheles gambiae; Anopheles gambiae, 10 mg/mL (Table 5), read-out: Percentage of repellence of mosquitoes Anopheles gambiae landing on the warm body",98%
same,repulsion,Anopheles gambiae; all doses ≥0.04% applied on the Warm Body (Table 5),> 90%
same,reduction of the number of mosquito Aedes aegypti landings,Aedes aegypti [3],99.4%±0.4%
